Data from PubChem BioAssay (NCI).
Values joined by “and” are separate entries in the source; they are usually repeats but may differ in a detail not shown here. Equal entries are not always repeated.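 All cell lines were grown in 96-well plates and treated with compound for 48 hours. GI50 = concentration required for 50% inhibition of growth. The concentration for full growth arrest is given as TGI.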

Experiments:
Assay in all cases: NCI-60 cell line screen, 48 h
HCC-2998 colon = system: HCC-2998 colon
HOP-62 NSCLC = system: HOP-62 NSCLC
MOLT-4 leukemia = system: MOLT-4 leukemia
NCI-H23 lung = system: NCI-H23 lung
NCI/ADR-RES ovarian = system: NCI/ADR-RES ovarian
OVCAR-8 ovarian = system: OVCAR-8 ovarian
SF-295 CNS = system: SF-295 CNS
SK-MEL-5 melanoma = system: SK-MEL-5 melanoma
SW-620 colon = system: SW-620 colon
UACC-257 melanoma = system: UACC-257 melanoma

| SMILES | TGI (HCC-2998 colon) | TGI (HOP-62 NSCLC) [µM] | TGI (MOLT-4 leukemia) [µM] | TGI (NCI-H23 lung) | TGI (NCI/ADR-RES ovarian) | TGI (OVCAR-8 ovarian) | TGI (SF-295 CNS) [µM] | TGI (SK-MEL-5 melanoma) [µM] | TGI (SW-620 colon) [µM] | TGI (UACC-257 melanoma) [µM] | GI50 (HCC-2998 colon) [µM] | GI50 (HOP-62 NSCLC) [µM] | GI50 (NCI-H23 lung) [µM] | GI50 (NCI/ADR-RES ovarian) [µM] | GI50 (OVCAR-8 ovarian) [µM] | GI50 (SF-295 CNS) [µM] | GI50 (SW-620 colon) [µM] | GI50 (MOLT-4 leukemia) [µM] | GI50 (SK-MEL-5 melanoma) [µM] | GI50 (UACC-257 melanoma) [µM] |
| --- | --- | --- | --- | --- | --- | --- | --- | --- | --- | --- | --- | --- | --- | --- | --- | --- | --- | --- | --- | --- |
| CO[C@@]12C[C@H](CNC(=O)c3ccc[nH]3)O[C@@H]1NC(=O)N2 | > 100 µM | > 100 | > 100 | > 100 µM | > 100 µM | > 100 µM | > 100 | > 100 | > 100 | > 100 |  |  |  |  |  |  |  |  |  |  |
| Clc1cc(N/N=C(\c2ccccc2)c2ccccn2)ncn1 | > 100 µM | 0.665 | 3.48 | > 100 µM |  |  | > 100 | 4.2 | > 100 | 4.65 |  |  |  |  |  |  |  |  |  |  |
| S=C(NCc1ccccn1)N/N=C/c1ccccn1 | > 100 µM |  | < 0.0357 |  | > 100 µM | > 100 µM | > 96 | 1.5 | > 100 | < 0.01 |  |  |  |  |  |  |  |  |  |  |
| NC(=S)NNCC(=O)CC(O)(C(F)(F)F)C(F)(F)Cl (centres undefined) |  |  | > 100 | > 100 µM | > 100 µM | > 100 µM | > 100 | > 100 | > 100 | > 100 |  |  |  |  |  |  |  |  |  |  |
| O=CN1CCN(c2ccc3ccc(=O)[nH]c3n2)CC1 | > 100 µM | > 100 | > 100 | > 100 µM | > 100 µM | > 100 µM | > 100 |  | > 100 | > 100 |  |  |  |  |  |  |  |  |  |  |
| OCCc1ccsc1-c1sc(-c2cc(CCO)c(-c3sc(-c4cc(CCO)c(-c5sccc5CCO)s4)cc3CCO)s2)cc1CCO | 2.95 µM | 2.76 |  | 2.87 µM | 4.14 µM | 3.13 µM | 2.7 | 3.01 | 3.98 | 2.9 |  |  |  |  |  |  |  |  |  |  |
| CCOC(=O)[C@@]12C[C@](/C=C/OC)(O[Si](C)(C)C)[C@@]13c1cc(OC)c(OC)cc1CCN3C(=O)C2=O |  | > 100 | > 100 | > 100 µM | > 100 µM | > 100 µM | > 100 | > 100 | > 100 | > 100 |  |  |  |  |  |  |  |  |  |  |
| C[C@]12CC[C@H]3[C@@H](CC=C4C[C@@H](O)CC[C@@]43C)[C@@H]1C/C(=C\c1cccnc1)[C@@H]2O |  | 29.4 |  | > 100 µM | > 100 µM | 36.3 µM | 17.2 |  | > 100 | > 100 |  |  |  |  |  |  |  |  |  |  |
| Cc1ccc(/C=c2\cc3oc(=O)c4cccc(c4-3)c2=O)cc1 | > 100 µM | > 100 |  | > 100 µM | > 100 µM | > 100 µM | > 100 |  | > 100 | > 100 |  |  |  |  |  |  |  |  |  |  |
| COc1ccc(-c2nc3ccccc3c(=O)[nH]2)cc1 |  | > 100 | > 100 | > 100 µM | > 100 µM | > 100 µM | > 100 | > 100 | > 100 | > 100 |  |  |  |  |  |  |  |  |  |  |
| CSc1c(C(C)=O)c(O)n(-c2ccc(C)cc2)c(=O)c1C#N | > 100 µM |  | > 100 | > 100 µM | > 100 µM | > 100 µM |  | > 100 | > 100 | > 100 |  |  |  |  |  |  |  |  |  |  |
| CCCC(=O)Nc1cc(C(=O)N2C[C@H]3C[C@@]34C2=CC(=O)c2[nH]cc(C)c24)n(COC)c1 | 0.361 µM and 0.336 µM |  |  | 0.452 µM and 0.213 µM | 2.73 µM and 4.64 µM | 0.343 µM and 0.392 µM |  |  | 82.2 | 0.833 | 0.14 | 0.104 | 0.0328 | 1.17 | 0.13 | 0.229 | 0.184 |  |  |  |
| Oc1c(Br)cc2c(c1Br)-c1c(c(O)c3c4c1=NCCC=4C=N3)NCC2 |  | > 66.3 | 9.79 | 30.3 µM | 34.3 µM | 28.5 µM | 19.5 | 23.2 | 50.1 | 20 |  |  |  |  |  |  |  |  |  |  |
| CSc1cc(Cl)c(C)cc1S(=O)(=O)NC(=O)NNc1ccc(C)cc1 | 66.1 µM | > 100 | > 100 |  | > 100 µM | > 100 µM | > 100 | > 100 | > 100 |  |  |  |  |  |  |  |  |  |  |  |
| N#C[S-].[La+3].c1ccc(-c2ccccn2)nc1.c1ccc(-c2ccccn2)nc1.c1ccc(-c2ccccn2)nc1 | > 100 µM |  | > 100 | > 100 µM |  | > 100 µM | 71.3 | 34.8 | > 100 | 65.2 | 17.4 |  | 29.1 |  | 25.9 | 12.3 | 33.6 | 10.5 | 10.4 | 24.3 |
| CCOC(=O)c1ccc(N(CCOS(C)(=O)=O)CCOS(C)(=O)=O)cc1 | > 100 µM |  | 48.1 | > 100 µM | > 100 µM | > 100 µM | > 100 | > 100 | > 100 | > 100 |  |  |  |  |  |  |  |  |  |  |
| COC(=O)[C@@H]1c2c(oc3cc(CO)cc(O)c3c2=O)C=C[C@H]1O |  | 40 | > 100 | 36 µM | 47.5 µM | 21.7 µM | 35.7 | 28.5 | 10.4 | 21.5 |  |  |  |  |  |  |  |  |  |  |
| O=C(/C=C/c1ccc(OCc2ccccc2)cc1)NCc1ccc(C(=O)NCCc2ccccc2)cc1 | > 100 µM | > 100 |  | > 100 µM | > 100 µM | > 100 µM | > 100 | > 100 | > 100 | > 100 |  |  |  |  |  |  |  |  |  |  |
| CCOC(=O)C(O)(CC1=NC(C(=O)OC)(C(=O)OC)C(c2cccc(C=O)c2)O1)C(=O)OCC (centres undefined) | > 100 µM | > 100 | > 100 | > 100 µM | > 100 µM | > 100 µM |  | > 100 | > 100 | > 100 |  |  |  |  |  |  |  |  |  |  |
| Cc1ccc(C2=CC(=O)/C(=C\C(=O)c3ccc(Br)cc3)O2)c(C)c1 | 25.4 µM | > 66.7 | > 47.9 | 56.9 µM | 29.4 µM | 19 µM | > 54.2 | 41.5 |  | > 48.6 |  |  |  |  |  |  |  |  |  |  |
| O=c1cc(-c2cccc(OC(F)(F)F)c2)[nH]c2ccc(N3CCCC3)cc12 | 0.011 µM |  | 0.00157 | 0.0502 µM | 0.000673 µM |  | 0.00048 | 0.0105 | > 100 | > 100 |  |  |  |  |  |  |  |  |  |  |
| O=C(NNC(=O)c1ccco1)c1ccco1 |  | > 100 | > 100 |  | > 100 µM | > 100 µM | > 100 | > 100 | > 100 | > 100 |  |  |  |  |  |  |  |  |  |  |
| O=C(O)CN1C(=O)c2ccc(NC(=O)C(=O)O)cc2S1(=O)=O | > 100 µM | > 100 | > 100 | > 100 µM | > 100 µM |  | > 100 | > 100 | > 100 | > 100 |  |  |  |  |  |  |  |  |  |  |
